# Test results published in patent US5079252A, “Therapeutic compounds” (priority 1988, dated 1992).
# Read-outs that look alike come from different tables or passages of the source.
# What was measured:
# herpes viruses = details: cited from earlier work
# [1] = background statement; cited from earlier work
# [2] = test system: Herpes Simplex Virus (HSV 1); assay: HSV 1 plaque reduction assay in Vero cell monolayers; type: cell-based; details: read-out: 50% inhibitory concentration (IC50)
# Description: Herpes Simplex Virus (HSV 1) was assayed in monolayers of Vero cells in multiwell trays. Activity of compounds was determined in the plaque reduction assay, in which a cell monolayer was infected with a suspension of HSV 1, and then overlaid with nutrient agarose in the form of a gel to ensure that there was no spread of virus throughout the culture. A range of concentrations of compound of known molarity was incorporated in the nutrient agarose overlay. Plaque numbers at each concentration are expressed as percentages of the control and a dose-response curve was drawn. From this curve the 50% inhibitory concentration (IC50) was estimated.
# [3] = cited from earlier work
# [4] = Plasma levels of acyclovir after oral administration in animals; type: in vivo
# [5] = Oral bioavailability in rats: urinary recovery as acyclovir after oral administration (gavage); type: in vivo, Long Evans Rates (rats)
# Description: Long Evans Rates are administered the compound to be tested by gavage at a dose equivalent to 25 mg/kg acyclovir. The urine is collected for 24 and 48 hours post-dose, ultrafiltered, and analysed by reverse-phase high-pressure liquid chromatography. The oral bioavailability of the compound is expressed as the percent of the dose excreted in the urine as acyclovir.
"IC50 ([2]; HSV 1, Vero cells, plaque reduction) [nM]",bioavailability compared with acyclovir or the esters disclosed in UK 1523865 and 1561380 ([5]; oral),"Urinary Recovery (% of dose) as acyclovir ([5]; rats, gavage, dose equivalent to 25 mg/kg acyclovir, urine 24 and 48 hours post-dose)",SMILES,"antiviral activity, particularly against herpes viruses (herpes viruses)",absorption from the gastrointestinal tract after oral administration [1],IC50 ([2]; Vero) [nM],solubility in water [3],levels of acyclovir in the plasma [4]
–,–,–,"Nc1nc2c(ncn2COCCO)c(=O)[nH]1 [Acyclovir, 9-(2-Hydroxyethoxymethyl)guanine]",potent antiviral activity,only poorly absorbed,~100,poorly soluble,–
200,improved bioavailability,34 % of dose,"CCCCC(=O)OCCOCn1cnc2c(=O)[nH]c(N)nc21 [Example A, 9-(2-valeryloxyethoxymethyl)guanine]",–,–,–,–,measurable levels of acyclovir in the plasma
